From PMC12251151, “Understanding Anti-Obesity Potential of Four Porphyrin Compounds by Investigating Pancreatic Lipase Inhibition” (Molecules, 2025) come the findings set out here.

This assay addresses T1, pancreatic lipase (PL) (Sus scrofa, UniProt P00591).
T1 construct: lipase (porcine pancreas); purchased Shanghai Yuanye Co., Ltd., Shanghai, China; host or cells: porcine pancreas
T1 sequence (P00591 1-450): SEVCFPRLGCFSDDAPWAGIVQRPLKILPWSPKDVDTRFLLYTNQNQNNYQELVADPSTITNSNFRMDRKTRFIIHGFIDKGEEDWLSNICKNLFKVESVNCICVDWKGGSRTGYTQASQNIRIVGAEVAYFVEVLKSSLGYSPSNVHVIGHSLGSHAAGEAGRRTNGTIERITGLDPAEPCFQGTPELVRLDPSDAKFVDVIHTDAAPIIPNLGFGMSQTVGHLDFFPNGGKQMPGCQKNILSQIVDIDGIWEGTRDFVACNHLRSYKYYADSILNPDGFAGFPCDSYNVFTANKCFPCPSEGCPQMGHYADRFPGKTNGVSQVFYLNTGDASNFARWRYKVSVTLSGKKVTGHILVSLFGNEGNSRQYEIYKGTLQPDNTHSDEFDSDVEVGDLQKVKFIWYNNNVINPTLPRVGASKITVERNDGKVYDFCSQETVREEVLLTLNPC
As to the kind of experiment: Fluorescence quenching and binding interaction with PL (Stern-Volmer, double logarithmic, Van't Hoff). Set-up: species or system porcine. The note with it: for Fluorescence quenching mechanism on PL: Stern-Volmer analysis; for Fluorescence quenching mechanism on PL / ΔH^0 / ΔS^0: 298-310 K; for ΔH^0 / ΔS^0: Van't Hoff; for Main driving forces of binding to PL: from signs of ΔH^0 and ΔS^0; for Kd: read-out: Ka (binding constant) (converted). The text has this: Judged by the Stern–Volmer equation, the formula is referred to (3):(3) F0/F=1+KSV[Q]=1+Kqτ0[Q],
The modified Stern–Volmer equation [34], formula reference (4):(4) F0/F=e^KSV[Q]=e^Kqτ0[Q],
The double logarithmic equation:(5) logF0−F/F=logKa+nlog[Q],
In the formula, F0 and F are the fluorescence intensities of the enzyme before and after the addition of four porphyrin compounds. KSV and Kq represent the fluorescence quenching constant and the quenching rate constant, respectively. τ0 (10^−8 s) is the average lifetime of the fluorescent molecule in the absence of the fluorescence quencher. [Q] denotes the concentration of the porphyrin compound. Ka is the binding constant. n is the number of binding sites.
The relevant thermodynamic parameters were calculated by Equations (6) and (7), and the Van’t Hoff curves of four porphyrin compounds and enzymes were obtained:(6) lnKa=−ΔH^0/RT+ΔS^0/R, (7) ΔG^0=ΔH^0−TΔS^0=−RTlnKa,
The method of Li et al. was referred to and appropriate changes were made. A series of concentrations of porphyrin compounds were mixed with pancreatic lipase (5 mg/mL) at a volume ratio of 1:1 and incubated at 298, 304, and 310 K for 5 min. The excitation wavelength of the Hitachi fluorescence spectrometer F-7000 ([…], Japan) was set to 280 nm, the slit width was set to 5 nm, and the scanning range was set to 300–500 nm. In order to eliminate the influence of ‘internal filtering effect’ [42], the following formula is used for correction. Fcor=Fobse^(Aex+Aem)/2 , where Fcor and Fobs are the corrected fluorescence intensity and the experimentally measured fluorescence intensity, and Aex and Aem are the UV absorption values of the system at the excitation and emission wavelengths, respectively.

Where two headings read alike, the source gives them in different places.

As to `O=C([O-])c1ccc(C2=C3C=CC(=N3)C(c3ccc(C(=O)[O-])cc3)=C3C=CC(=N3)C(=c3ccc(=C([O-])[O-])cc3)c3ccc([n-]3)C(c3ccc(C(=O)[O-])cc3)=C3C=CC2=N3)cc1.[67Cu+2].[H+].[H+].[H+].[H+]` [Cu-TCPP, Cu (II) meso-Tetra (4-carboxyphenyl) porphine], the “Fluorescence quenching mechanism on PL” value is given as “static quenching”, the “ΔH^0” value amounted to 5.1 ± 0.0096 kcal/mol, the “ΔS^0” value is reported as 150.70 ± 0.07 J/mol/k and the “Main driving forces of binding to PL” value was “hydrophobic forces”. For the same molecule, where the note is “T 298 K”, the “Ka (binding constant)” value is 0.13 ± 0.01 ×10^5 L/mol, the “Kq (quenching rate constant)” value is given as 2.36 ± 0.01 ×10^12 L/mol/s, the “Ksv (fluorescence quenching constant)” value was 2.36 ± 0.01 ×10^4 L/mol and the “n (number of binding sites)” value came to 0.93. In addition, the “ΔG^0” value (T 298 K) is -5.631 ± 0.019 kcal/mol. Under “T 304 K”, the “Ka (binding constant)” value was 0.16 ± 0.01 ×10^5 L/mol, the “Kq (quenching rate constant)” value is recorded as 2.33 ± 0.03 ×10^12 L/mol/s, the “Ksv (fluorescence quenching constant)” value is 2.33 ± 0.03 ×10^4 L/mol and the “n (number of binding sites)” value stood at 0.95. Also, the “ΔG^0” value (T 304 K) was -5.851 ± 0.012 kcal/mol. Besides, for the setting “T 310 K”, the “Ka (binding constant)” value was 0.19 ± 0.01 ×10^5 L/mol, the “Kq (quenching rate constant)” value is 2.32 ± 0.03 ×10^12 L/mol/s, the “Ksv (fluorescence quenching constant)” value was 2.32 ± 0.03 ×10^4 L/mol and the “n (number of binding sites)” value turned out to be 0.97. Also, for the setting “T 310 K”, the “ΔG^0” value was -6.064 ± 0.012 kcal/mol.

Take `Nc1ccc(-c2c3nc(c(-c4ccc(N)cc4)c4ccc([nH]4)c(-c4ccc(N)cc4)c4nc(c(-c5ccc(N)cc5)c5ccc2[nH]5)C=C4)C=C3)cc1` [TAPP, 5,10,15,20-Tetrakis (4-aminophenyl) porphyrin]: the “Fluorescence quenching mechanism on PL” value is “static quenching”; the “ΔH^0” value is -17.28 ± 0.012 kcal/mol; the “ΔS^0” value is listed as −142.66 ± 0.06 J/mol/k; the “Main driving forces of binding to PL” value was “hydrogen bonds and van der Waals forces”. For the setting “T 298 K”, the “Kq (quenching rate constant)” value was 9.70 ± 0.11 ×10^12 L/mol/s, the “Ksv (fluorescence quenching constant)” value was 9.70 ± 0.11 ×10^4 L/mol, the “n (number of binding sites)” value is 1.05 and the “ΔG^0” value is -7.118 ± 0.012 kcal/mol. Further, where the note is “T 298 K”, the Kd was 6020 nM. Under “T 304 K”, the “Kq (quenching rate constant)” value is 8.80 ± 0.06 ×10^12 L/mol/s, the “Ksv (fluorescence quenching constant)” value is recorded as 8.80 ± 0.06 ×10^4 L/mol, the “n (number of binding sites)” value is reported as 1.01 and the “ΔG^0” value is -6.938 ± 0.017 kcal/mol. For the same molecule, the Kd (T 304 K) was 10300 nM. Besides, where the note is “T 310 K”, the “Kq (quenching rate constant)” value is 8.17 ± 0.08 ×10^12 L/mol/s, the “Ksv (fluorescence quenching constant)” value is 8.17 ± 0.08 ×10^4 L/mol, the “n (number of binding sites)” value was determined as 0.96 and the “ΔG^0” value was -6.707 ± 0.014 kcal/mol. In addition, the Kd (T 310 K) is 18500 nM.

For `O=C(O)c1ccc(-c2c3nc(c(-c4ccc(C(=O)O)cc4)c4ccc([nH]4)c(-c4ccc(C(=O)O)cc4)c4nc(c(-c5ccc(C(=O)O)cc5)c5ccc2[nH]5)C=C4)C=C3)cc1` [TCPP, meso-Tetra (4-carboxyphenyl) porphine], the “Fluorescence quenching mechanism on PL” value is on record as “static quenching”; the “ΔH^0” value is -16.39 ± 0.017 kcal/mol; the “ΔS^0” value is −116.60 ± 0.11 J/mol/k; the “Main driving forces of binding to PL” value is “hydrogen bonds and van der Waals forces”. Under “T 298 K”, the “Kq (quenching rate constant)” value is on record as 4.60 ± 0.07 ×10^12 L/mol/s, the “Ksv (fluorescence quenching constant)” value is reported as 4.60 ± 0.07 ×10^4 L/mol, the “n (number of binding sites)” value came to 1.30 and the “ΔG^0” value was -8.076 ± 0.0096 kcal/mol. The Kd (T 298 K) was 1190 nM. Moreover, under “T 304 K”, the “Kq (quenching rate constant)” value is 4.59 ± 0.06 ×10^12 L/mol/s, the “Ksv (fluorescence quenching constant)” value is 4.59 ± 0.06 ×10^4 L/mol, the “n (number of binding sites)” value is 1.26 and the “ΔG^0” value was -7.945 ± 0.0311 kcal/mol. Further, the Kd (T 304 K) is 1940 nM. For the setting “T 310 K”, the “Kq (quenching rate constant)” value is listed as 4.50 ± 0.06 ×10^12 L/mol/s, the “Ksv (fluorescence quenching constant)” value is recorded as 4.50 ± 0.06 ×10^4 L/mol, the “n (number of binding sites)” value is 1.16 and the “ΔG^0” value was -7.739 ± 0.019 kcal/mol. Also, under “T 310 K”, the Kd is 3500 nM.

With `Oc1ccc(-c2c3nc(c(-c4ccc(O)cc4)c4ccc([nH]4)c(-c4ccc(O)cc4)c4nc(c(-c5ccc(O)cc5)c5ccc2[nH]5)C=C4)C=C3)cc1` [THPP, 5,10,15,20-Tetrakis (4-hydroxyphenyl) porphyrin], the “Fluorescence quenching mechanism on PL” value is “mixed quenching dominated by static quenching and supplemented by dynamic quenching”; the “ΔH^0” value is -30.946 ± 0.0263 kcal/mol; the “ΔS^0” value is recorded as −309.86 ± 0.12 J/mol/k; the “Main driving forces of binding to PL” value was “hydrogen bonds and van der Waals forces”. Also, where the note is “T 298 K”, the “Kq (quenching rate constant)” value is given as 1.36 ± 0.02 ×10^12 L/mol/s, the “Ksv (fluorescence quenching constant)” value is on record as 1.36 ± 0.02 ×10^4 L/mol, the “n (number of binding sites)” value is 1.52 and the “ΔG^0” value was -8.91 ± 0.0406 kcal/mol. The Kd (T 298 K) is 292 nM. Also, under “T 304 K”, the “Kq (quenching rate constant)” value was 1.17 ± 0.03 ×10^12 L/mol/s, the “Ksv (fluorescence quenching constant)” value is on record as 1.17 ± 0.03 ×10^4 L/mol, the “n (number of binding sites)” value is reported as 1.38 and the “ΔG^0” value was -8.363 ± 0.0263 kcal/mol. The Kd (T 304 K) is 968 nM. In addition, where the note is “T 310 K”, the “Kq (quenching rate constant)” value is on record as 1.11 ± 0.04 ×10^12 L/mol/s, the “Ksv (fluorescence quenching constant)” value is given as 1.11 ± 0.04 ×10^4 L/mol, the “n (number of binding sites)” value worked out at 1.33 and the “ΔG^0” value is -8.023 ± 0.022 kcal/mol. The Kd (T 310 K) is 2200 nM.
